In patent publication US11433055B2, “Chromane monobactam compounds for the treatment of bacterial infections” (priority 2017, dated 2022):
Structures can show the parent of a compound that is named as a salt.

What was measured:
Assay type in all cases: cell-based
Details in all cases: lowest concentration inhibiting 95% of bacterial growth; in the presence of β lactamase inhibitor (BLi, Relebactam); 22 hours, 35±2° C., OD600
[1] = system: Klebsiella pneumoniae expressing KPC-1 (CL6569)
Protocol: (§1) Antibiotic Activity: Determination of Growth Inhibitory Concentration
(§2) The concentrations of compounds required to inhibit the growth of various strains of bacteria were determined in an assay that assessed bacterial growth by measuring optical density at 600 nm (OD600). The bacterial strains tested included the clinical strains Escherichia coli expressing NDM-1 (CLB30016), Klebsiella pneumoniae expressing KPC-1 (CL6569), Acinetobacter baumannii expressing TEM-1, AmpC, and Oxa-24/40 (CL6188) and Pseudomonas aeruginosa expressing AmpC (CL5701). All compounds were tested in the presence of a β lactamase inhibitor (BLi, Relebactam) in 384-well microplates. The clinical strains were stored as frozen single use stocks, thawed and diluted into 1.1× cation-adjusted Mueller-Hinton II broth to achieve approximately 2×10^5 CFU/mL. Test compounds were dissolved in DMSO and diluted 1:50 in the assay, resulting in a final concentration range of 100 μM to 0.098 μM. On the day of the assay, 1 μL of test compound was added to the plate followed by 4 μL of 50 μg/mL BLi in MOPS buffer and 45 μL of diluted bacteria. Plates were centrifuged at 1000 rpm for 30 seconds, shaken at approximately 800 rpm for 1 minute, and incubated at 35±2° C. for 22 hours. The concentration of BLi used in the assay was […]. At the end of the incubation, absorbance at 600 nm was determined using a spectrophotometer. Inhibition was quantitated by identifying the lowest concentration of test compound that was required to inhibit 95% of the growth of the bacteria. The results for Examples 1-39 are reported in Table I, expressed as the concentration of compound that inhibited 95% of bacterial growth (Minimum Inhibitory Threshold Concentration; MITC95).

[2] = system: Escherichia coli expressing NDM-1 (CLB30016)
Protocol: as §1, §2

[3] = system: Pseudomonas aeruginosa expressing AmpC (CL5701)
Protocol: as §1, §2

[4] = system: Acinetobacter baumannii expressing TEM-1, AmpC, and Oxa-24/40 (CL6188)
Protocol: as §1, §2

| Structure (SMILES) | KP_CL6569 MITC95 [1] [µM] | EC_CLB30016 MITC95 [2] [µM] | PA_CL5701 MITC95 [3] [µM] | AB_CL6188 MITC95 [4] [µM] |
| --- | --- | --- | --- | --- |
| C[n+]1cc(-c2ccc3c(c2)CC[C@H]([C@](C)(O/N=C(\C(=O)N[C@@H]2C(=O)N(OS(=O)(=O)[O-])C2(C)C)c2csc(N)n2)C(=O)O)O3)cnc1N(CCN)CC1CNC1.O=CO [Example 15, (S)-3-((Z)-2-(((S)-1-((R)-6-(2-((2-aminoethyl)(azetidin-1-ium-3-ylmethyl)amino)-1-methylpyrimidin-1-ium-5-yl)chroman-2-yl)-1-carboxyethoxy)imino)-2-(2-aminothiazol-4-yl)acetamido)-2,2-dimethyl-4-oxoazetidin-1-yl sulfate formate] | 0.3906 | 6.25 | 6.25 | 3.125 |
| CC1(C)[C@H](NC(=O)/C(=N\OCC2CCc3cc(C(=N)NCCN)ccc3O2)c2csc(N)n2)C(=O)N1OS(=O)(=O)O (stereo partly drawn) [Example 13, (3S)-3-((Z)-2-(((6-(N-(2-aminoethyl)carbamimidoyl)chroman-2-yl)methoxy)imino)-2-(2-aminothiazol-4-yl)acetamido)-2,2-dimethyl-4-oxoazetidin-1-yl hydrogen sulfate] | 0.7813 | 12.5 | 12.5 | 25 |
| C[n+]1cc(-c2ccc3c(c2)CC[C@H]([C@](C)(O/N=C(\C(=O)N[C@@H]2C(=O)N(OS(=O)(=O)[O-])C2(C)C)c2csc(N)n2)C(=O)O)O3)cn1C[C@@H](O)CN [Example 8, (S)-3-((Z)-2-(((S)-1-((R)-6-(1-((S)-3-amino-2-hydroxypropyl)-2-methyl-1H-pyrazol-2-ium-4-yl)chroman-2-yl)-1-carboxyethoxy)imino)-2-(2-aminothiazol-4-yl)acetamido)-2,2-dimethyl-4-oxoazetidin-1-yl sulfate] | 3.125 | 100 | 25 | 100 |
| C[n+]1cc(-c2ccc3c(c2)CC[C@H]([C@](C)(O/N=C(\C(=O)N[C@@H]2C(=O)N(OS(=O)(=O)[O-])C2(C)C)c2csc(N)n2)C(=O)O)O3)cnc1NC[C@@H](O)CN.O=CO [Example 18, (S)-3-((Z)-2-(2-aminothiazol-4-yl)-2-(((S)-1-((R)-6-(2-(((S)-3-ammonio-2-hydroxy-propyl)amino)-1-methylpyrimidin-1-ium-5-yl)chroman-2-yl)-1-carboxy-ethoxy)imino)acetamido)-2,2-dimethyl-4-oxoazetidin-1-yl sulfate formate] | 0.3906 | 6.25 | 6.25 | 3.125 |
| CC1(C)[C@H](NC(=O)/C(=N\O[C@](C)(C(=O)O)[C@H]2CCc3cc(-c4cn(C[C@@H](O)CN)[n+](C[C@@H]5CCNC5)c4)ccc3O2)c2csc(N)n2)C(=O)N1OS(=O)(=O)O.O=C([O-])C(F)(F)F [Example 40, Mono((S)-3-((Z)-2-(((S)-1-((R)-6-(1-((S)-3-amino-2-hydroxypropyl)-2-((R)-pyrrolidin-3-ylmethyl)-1H-pyrazol-2-ium-4-yl)chroman-2-yl)-1-carboxyethoxy)imino)-2-(2-aminothiazol-4-yl)acetamido)-2,2-dimethyl-4-oxoazetidin-1-yl sulfate) mono (2,2,2-trifluoroacetate)] | 0.1 | >50 | 0.78 | 1.56 |
| CC1(C)[C@H](NC(=O)/C(=N\O[C@](C)(C(=O)O)[C@H]2CCc3cc(-c4ccc(NCCN)[n+](CC5CNC5)c4)ccc3O2)c2csc(N)n2)C(=O)N1OS(=O)(=O)[O-].O=CO [Example 14, (S)-3-((Z)-2-(((S)-1-((R)-6-(6-((2-aminoethyl)amino)-1-(azetidin-1-ium-3-ylmethyl)pyridin-1-ium-3-yl)chroman-2-yl)-1-carboxyethoxy)imino)-2-(2-aminothiazol-4-yl)acetamido)-2,2-dimethyl-4-oxoazetidin-1-yl Sulfate Formate] | 0.7813 | 12.5 | 12.5 | 50 |
| CC1(C)[C@H](NC(=O)/C(=N\O[C@](C)(C(=O)O)[C@H]2CCc3cc(C4CN=C(NC[C@@H](O)CN)NC4)ccc3O2)c2csc(N)n2)C(=O)N1OS(=O)(=O)O.O=CO (stereo partly drawn) [Example 29, 2-(((S)-3-amino-2-hydroxypropyl)amino)-5-((R)-2-((S)-1-((((Z)-1-(2-aminothiazol-4-yl)-2-(((S)-2,2-dimethyl-4-oxo-1-(sulfooxy)azetidin-3-yl)amino)-2-oxoethylidene)amino)oxy)-1-carboxyethyl)chroman-6-yl)-3,4,5,6-tetrahydropyrimidin-1-ium formate] | 1.563 | 25 | 6.25 | 3.125 |
| CC1(C)[C@H](NC(=O)/C(=N\O[C@](C)(C(=O)O)[C@H]2CCc3cc(-c4cn(C[C@@H](O)CN)[n+](CC5CNC5)c4)ccc3O2)c2csc(N)n2)C(=O)N1OS(=O)(=O)[O-] [Example 4, (S)-3-((Z)-2-(((S)-1-((R)-6-(1-((S)-3-Amino-2-hydroxypropyl)-2-(azetidin-3-ylmethyl)-1H-pyrazol-2-ium-4-yl)chroman-2-yl)-1-carboxyethoxy)imino)-2-(2-aminothiazol-4-yl)acetamido)-2,2-dimethyl-4-oxoazetidin-1-yl Sulfate] | 1.281 | 12.5 | 25 | 6.25 |
| C[n+]1cc(-c2ccc3c(c2)OCC(CO/N=C(\C(=O)N[C@@H]2C(=O)N(OS(=O)(=O)[O-])C2(C)C)c2csc(N)n2)C3)ccc1NCCN.O=C(O)C(F)(F)F (stereo partly drawn) [Example 38, mono((S)-3-((Z)-2-(2-aminothiazol-3-ium-4-yl)-2-((((S)-7-(6-((2-ammonioethyl)amino)-1-methylpyridin-1-ium-3-yl)chroman-3-yl)methoxy)imino)acetamido)-2,2-dimethyl-4-oxoazetidin-1-yl sulfate) mono(2,2,2-trifluoroacetate)] | 0.3906 | 6.25 | 6.25 | 6.25 |
| CC1(C)[C@H](NC(=O)/C(=N\O[C@](C)(C(=O)O)[C@H]2CCc3cc(-c4ccc(NCCCN)[n+](CCCN)c4)ccc3O2)c2csc(N)n2)C(=O)N1OS(=O)(=O)[O-].O=CO [Example 21, (S)-3-((Z)-2-(((S)-1-((R)-6-(1-(3-aminopropyl)-6-((3-ammoniopropyl)amino)pyridin-1-ium-3-yl)chroman-2-yl)-1-carboxyethoxy)imino)-2-(2-aminothiazol-4-yl)acetamido)-2,2-dimethyl-4-oxoazetidin-1-yl sulfate formate] | 0.3906 | 6.25 | 12.5 | 3.125 |
| C[n+]1cc(-c2ccc3c(c2)CC[C@H]([C@](C)(O/N=C(\C(=O)N[C@@H]2C(=O)N(OS(=O)(=O)[O-])C2(C)C)c2csc(N)n2)C(=O)O)O3)cn1CC1(N)CNC1 [Example 6, (S)-3-((Z)-2-(((S)-1-((R)-6-(1-((3-Aminoazetidin-3-yl)methyl)-2-methyl-1H-pyrazol-2-ium-4-yl)chroman-2-yl)-1-carboxyethoxy)imino)-2-(2-aminothiazol-4-yl)acetamido)-2,2-dimethyl-4-oxoazetidin-1-yl Sulfate] | 12.5 | 100 | 100 | 100 |
| CC1(C)[C@H](NC(=O)/C(=N\O[C@](C)(C(=O)O)[C@H]2CCc3cc(C4CNC(NCCN)=N4)ccc3O2)c2csc(N)n2)C(=O)N1OS(=O)(=O)O (single isomer, unassigned) [Example 26] | 1.563 | 100 | 50 | 12.5 |
| CC1(C)[C@H](NC(=O)/C(=N\O[C@](C)(C(=O)O)[C@H]2CCc3cc(C4CN=C(NC(CN)CN)NC4)ccc3O2)c2csc(N)n2)C(=O)N1OS(=O)(=O)O.O=CO (stereo partly drawn) [Example 31, 5-((R)-2-((S)-1-((((Z)-1-(2-aminothiazol-4-yl)-2-(((S)-2,2-dimethyl-4-oxo-1-(sulfooxy)azetidin-3-yl)amino)-2-oxoethylidene)amino)oxy)-1-carboxyethyl)chroman-6-yl)-2-((1,3-diaminopropan-2-yl)amino)-3,4,5,6-tetrahydropyrimidin-1-ium formate] | 0.3906 | 6.25 | 3.125 | 3.125 |
